The text below walks through data of patent publication US6875847B1, “Linoleate and linolenate-lipoxygenase mutants” (Institut fur Pflanzenbiochemie IPE, priority 1999, dated 2005).

The target of the test is T1, Cucumis sativus (cucumber) lipid body lipoxygenase (cslbLOX, 13-LOX), wild type, X92890, FIG. 5 (Cucumis sativus, UniProt Q42710).
T1 sequence (Q42710 1-878): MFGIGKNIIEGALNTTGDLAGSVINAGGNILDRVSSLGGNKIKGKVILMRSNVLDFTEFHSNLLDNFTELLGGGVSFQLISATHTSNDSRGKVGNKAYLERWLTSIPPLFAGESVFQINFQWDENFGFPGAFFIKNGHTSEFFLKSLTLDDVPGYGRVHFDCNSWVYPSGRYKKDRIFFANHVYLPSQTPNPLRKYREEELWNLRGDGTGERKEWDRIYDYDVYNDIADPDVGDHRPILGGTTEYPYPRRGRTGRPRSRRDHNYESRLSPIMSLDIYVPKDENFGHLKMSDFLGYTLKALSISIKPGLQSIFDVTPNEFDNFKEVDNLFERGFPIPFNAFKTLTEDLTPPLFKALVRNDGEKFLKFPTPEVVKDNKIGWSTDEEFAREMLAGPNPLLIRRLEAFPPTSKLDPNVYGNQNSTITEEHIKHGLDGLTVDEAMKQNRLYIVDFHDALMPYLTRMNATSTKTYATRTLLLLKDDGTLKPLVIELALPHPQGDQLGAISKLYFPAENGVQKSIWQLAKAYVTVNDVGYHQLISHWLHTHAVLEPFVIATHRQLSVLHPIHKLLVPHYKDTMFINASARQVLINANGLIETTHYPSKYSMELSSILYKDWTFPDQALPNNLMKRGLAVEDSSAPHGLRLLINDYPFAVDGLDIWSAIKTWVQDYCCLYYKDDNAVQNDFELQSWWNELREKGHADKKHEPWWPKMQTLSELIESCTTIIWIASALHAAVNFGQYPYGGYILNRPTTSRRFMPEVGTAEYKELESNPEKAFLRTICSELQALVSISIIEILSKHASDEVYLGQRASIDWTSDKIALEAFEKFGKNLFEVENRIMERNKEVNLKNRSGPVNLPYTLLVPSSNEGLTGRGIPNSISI
Kind of test: Kinetic characterization of wild-type LOX (13-LOX) with LA. Format: biochemical. The following applies: 23 points measured between 100 μM and 250 μM LA. How it is done: For the bacterial expression of wild-type LOX and for directed mutagenesis the plasmid pQE-30 (Qiagen, Hilden, Germany), which contained the cDNA of the LOX from lipid bodies of cucumber cotyledons as an insert (LOXpQE 30: cf. Feussner, I., Bachmann, A., Höhne, M. & Kindl, H. (1998) FEBS Lett. 431, 433-436) was used. The mutagenesis was carried out with the aid of the QuikChange Mutagenesis Kit from Stratagene (Heidelberg, Germany). Oligonucleotides with the appropriate base exchanges were obtained from MWG-Biotech (Ebersberg, Germany). For the analysis of the mutations further conservative base exchange was initiated in order to create new restriction division sites or to delete existing ones. In addition all the mutations were sequenced and at least three different bacterial clones expressed and used for the investigation of enzymatic properties. The expression of LOXpQE-30 and all the mutations was carried out according to Feussner, I., Bachmann, A., Höhne, M. & Kindl, H. (1998) FEBS Left. 431, 433-436. Cells from 1-liter cultures were resuspended in 5 to 7 ml lysis buffer and with the aid of an ultrasound needle broken up with pulses each of 30 seconds, and the cell debris made into pellets. The affinity purification of the polyHis-extended LOX was carried out as previously described (cf. Feussner, I., Bachmann, A., Höhne, M. & Kindl, H. (1998) FEBS Lett. 431, 433436).

Structures are written as SMILES.

Consider `CCCCC/C=C\C/C=C\CCCCCCCC(=O)O` [LA, linoleic acid], for which the Km (usually the substrate concentration at which the rate is half of its maximum) is 115 µM and the “LA turnover at Vmax condition (substrate saturation)” value was 12 s⁻¹.
